One series relates to patients. The settings on record: cited from earlier work.
Series [1] relates to KK-Ay mouse (obese diabetic mice). Conditions: 100 mg/kg body weight, not normal or lean diabetic mice; cited from earlier work.
Series [2] relates to patients with dyslipidemia. Briefly: Clinical study: DHASCO capsules co-administered with statin medication for 12 months. Format: in vivo, human. Conditions: patients treated with DHA. The source says:
Thus, the present inventors have discovered that DHA has a long term effect (as shown by reduction in glycosylated hemoglobin levels reflecting longer term glucose control integrated over 2-3 months). Finally, the inventors have discovered that therapy using DHA-containing oils can be effective at DHA levels that are not excessive (e.g., at levels which minimize side effects associated with fatty acid ingestion).
In a clinical study, DHASCO capsules (which contained DHA as a triglyceride oil extracted from Crypthecodinium cohnii cells, obtained from Martek Biosciences Corp., Columbia, Md.) were co-administered with statin medication to patients with dyslipidemia. Hyperlipidemic patients already being treated with a stable dose of a statin medication but still failing to meet NCEP guidelines for LDL-cholesterol or triglycerides were treated with either 200 or 1000 mg of DHA daily for 12 months. HbA1c levels (glycosylated hemoglobin, a marker of glycemic control) were measured in plasma at baseline and after 8 or 12 months of treatment.
Reduction in CRP of this extent is clinically significant, and may be correlated with a benefit of reduced risk of Type II diabetes onset, independent of other Type II risk factors.

For series [3], the system named is subjects with HDL levels below the sex-specific median. The experiment in a line: Randomized, double-blind, controlled trial of DHASCO-S capsules, six weeks; metabolic disturbance score, serum lipids, LDL particles. Type of series: in vivo, human. The settings on record: 1.52 g DHA per day. The source says: DHASCO-S capsules (which contained DHA as a triglyceride oil extracted from Schizochytrium sp. cells, obtained from Martek Biosciences Corp., Columbia, Md.) were used in the following study. Subjects (n=57) were enrolled in a randomized, double-blind, controlled trial to assess the response to 1.52 g of DHA per day for six weeks. Subjects were aged 21-80 and had HDL levels below the sex-specific median (a criterion for metabolic syndrome). The average triglyceride (TG) level at the beginning of the study was 169-179 mg/dl (metabolic syndrome criterion >150 mg/dL). The average distribution of LDL particles in this population was 44-50% small dense particles. Small dense particles are another lipid hallmark of metabolic syndrome. […] The average waist circumference for men and women combined was about 100+/−2.5 cm (criterion for metabolic syndrome is about 88 cm for women and about 102 cm for men). The average blood pressure in the study was normotensive at 120/77 mmHg.
The metabolic disturbance score was calculated to assess the relationship between independent variables and the criterion related to metabolic syndrome. The score is a composite of values for selected risk factors including: serum triglycerides, serum HDL cholesterol, systolic blood pressure, waist circumference, and fasting serum glucose. The following formula was utilized to calculate the metabolic score, where Z=the z score, i.e., the number of standard deviations above or below the mean value for each variable (Micciolo 1991; Maki 1994): Metabolic Disturbance Score=Z for triglycerides+Z for systolic blood pressure+Z for waist circumference+Z for glucose−Z for HDL cholesterol. Since triglyceride values were not normally distributed, a natural log-transformation was performed to normalize the distribution prior to calculating the Z score.
Additionally, pre-specified subgroup analyses were performed for serum lipid and metabolic disturbance score values. The triglyceride subgroups were split at the median baseline value (170 mg/dL). A Body Mass Index (BMI) of 30 kg/m^2 was chosen as the cut-point for BMI subgroups (BMI<30 kg/m2 and BMI≧30 kg/m^2) because persons with a BMI≧30 kg/M^2 are considered obese (Expert Panel 1998).

`CN(C)C(=N)N=C(N)N` [Metformin]: the “patients with gastrointestinal reactions” value in the series with patients (fraction of patients) is recorded as “about a third”. Also, the “lactic acidosis cases that are fatal” value in the series with patients (rare reaction) is reported as “about 50%”.

For `CC/C=C\C/C=C\C/C=C\C/C=C\C/C=C\C/C=C\CCC(=O)OCC` [DHA ethyl ester], in series [1], the blood glucose result was “reduced”, the insulin sensitivity result is “enhanced” and the plasma triglycerides entry is listed as “reduced”.

As for `CC/C=C\C/C=C\C/C=C\C/C=C\C/C=C\C/C=C\CCC(=O)O` [DHA, docosahexaenoic acid], in series [2], the “overall reduction in CRP levels” value is given as 15%. The “increase in large LDL particles from baseline to end of treatment” value in series [3] (P=0.028 vs control) was 32.4%. Besides, the “change in small LDL particles from baseline” value in series [3] (P=0.191 vs control) was −23.2%. Besides, in series [3] (p=0.001 vs control), the “change in TG from baseline” value is −25.4%. Moreover, the “increase in HDL” value in series [3] (p=0.102 vs control) is on record as “+9.0%”. The “change from baseline in metabolic disturbance score, subgroup” value in series [3] (subjects with baseline triglycerides >=170 mg/dL, p=0.001 vs control) was −1.16.
